Data set [1] has as its system Proteinase-activated receptor 1 (Homo sapiens). As to the kind of experiment: Dissociation half-life from PAR-1 receptor.
For data set [2], the system named is Cynomolgus monkey. As to the kind of experiment: Inhibition of platelet aggregation in cynomolgus monkey at 2 mg/kg, po after 24 hrs. The format is functional, organism-based. More on the design: dose 2 mg/kg. The conditions noted are these: Macaca fascicularis.
The nature of data set [3]: AUC (0 to 24 hrs) in cynomolgus monkey at 1 mg/kg, po. The format is ADME, organism-based, Macaca fascicularis. Also on record: time < 24 hr, dose 1 mg/kg, route oral. The following applies: plasma.
Data set [4] is described as follows: AUC (0 to 6 hrs) in rat. Type of data set: ADME, organism-based. More on the design: time < 6 hr; concentration or dose not given beside the values. The conditions noted are these: plasma.
For data set [5], the target named is T1, Proteinase-activated receptor 1 (Homo sapiens, UniProt P25116).
T1 sequence (P25116 whole entry): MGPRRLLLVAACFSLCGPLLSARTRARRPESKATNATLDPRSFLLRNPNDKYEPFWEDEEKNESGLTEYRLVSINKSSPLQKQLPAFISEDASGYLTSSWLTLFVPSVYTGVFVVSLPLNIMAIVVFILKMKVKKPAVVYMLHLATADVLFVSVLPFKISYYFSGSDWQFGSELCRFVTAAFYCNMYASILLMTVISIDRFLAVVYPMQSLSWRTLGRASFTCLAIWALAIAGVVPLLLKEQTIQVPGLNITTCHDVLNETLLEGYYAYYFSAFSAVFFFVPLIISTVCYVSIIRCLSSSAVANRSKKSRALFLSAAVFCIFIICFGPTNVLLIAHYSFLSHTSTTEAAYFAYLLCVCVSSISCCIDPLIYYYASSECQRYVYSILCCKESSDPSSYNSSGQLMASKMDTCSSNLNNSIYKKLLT
Description: Displacement of [3H]haTRAP from PAR1. (In general: Displacement assays read how much labelled ligand stays bound in the presence of the test substance.)

The nature of data set [6]: AUC in cynomolgus monkey at 3 mg/kg, po. The format is ADME, organism-based, Macaca fascicularis. More on the design: dose 3 mg/kg, route oral. The conditions noted are these: plasma.
For data set [7], the system named is Cynomolgus monkey. Description: Inhibition of platelet aggregation in cynomolgus monkey at 3 mg/kg, po. The format is functional, organism-based. More on the design: dose 3 mg/kg. The conditions noted are these: Macaca fascicularis.
Data set [8] relates to Cynomolgus monkey. As to the kind of experiment: Inhibition of platelet aggregation in cynomolgus monkey after 24 hrs. Type of data set: functional, Macaca fascicularis.
Data set [9] relates to Cynomolgus monkey. As to the kind of experiment: Inhibition of platelet aggregation in cynomolgus monkey at 3 mg/kg, po upto 5 hrs. Also on record: dose 3 mg/kg. The conditions noted are these: Macaca fascicularis. The format is functional, organism-based.

Molecules are shown by their SMILES. Calls of active or inactive are those of the source. The calls are words filed in the database; no cut-off is given here. Where only a bound is given, the exact number is not on record here.

For orientation: AUC(0-t) means the area under the concentration-time curve up to a stated or last time point. Broadly, the IC50 is the midpoint of a concentration-inhibition curve. In data set [1], `O=C1OC[C@H]2[C@@H]1Cc1cc(F)ccc1[C@@H]2/C=C/c1ccc(-c2cccc(F)c2)cn1` came in with a dissociation half-life of 139 min. Also, in the data set on Cynomolgus monkey [2], the outcome was Active. In [3], the AUC(0-t) at 24 h was determined as 6200 ng·h/mL. In [4], this compound had an AUC(0-t) at 6 h of 3960 ng·h/mL. Further, the IC50 in data set [5] came out at 7.6 nM.

A word on the AUC: it is concentration integrated over time. As for `O=C1OC[C@H]2[C@@H]1Cc1ccccc1[C@@H]2/C=C/c1ccc(-c2cccc(F)c2)cn1`, the AUC in data set [6] was under 300 ng·h/mL. The compound further gave an IC50 in data set [5] of 7.5 nM.

For `O=C1OC[C@H]2[C@@H]1Cc1c(F)cccc1[C@@H]2/C=C/c1ccc(-c2cccc(C(F)(F)F)c2)cn1` (racemic), the IC50 in data set [5] was found to be 65 nM.

Turning to `O=C1OC[C@H]2[C@@H]1Cc1ccc(F)cc1[C@@H]2/C=C/c1ccc(-c2cccc(F)c2)cn1`, in data set [4], the AUC(0-t) at 6 h was determined as 5050 ng·h/mL. Further, the IC50 in data set [5] was 10 nM.

In [4], `O=C1OC[C@H]2[C@@H]1Cc1c(ccc(F)c1F)[C@@H]2/C=C/c1ccc(-c2cccc(Cl)c2)cn1` yielded an AUC(0-t) at 6 h of 264 ng·h/mL. Moreover, the result with Cynomolgus monkey [7] was inactive. In addition, the IC50 in data set [5] stood at 15.5 nM.

For orientation: Inhibition means how much of the control response was suppressed. `O=C1OC[C@H]2[C@@H]1Cc1cc(F)ccc1[C@@H]2/C=C/c1ccc(-c2cccc(Cl)c2)cn1` displayed an AUC(0-t) at 6 h in data set [4] of 3700 ng·h/mL. Moreover, the Inhibition in the data set with Cynomolgus monkey [8] worked out at 60%. Also, in data set [5], the IC50 is 13 nM.

As to `O=C1OC[C@H]2[C@@H]1Cc1ccc(Cl)cc1[C@@H]2/C=C/c1ccc(-c2cccc(C(F)(F)F)c2)cn1` (racemic), the IC50 in data set [5] came to 138 nM.

Turning to `O=C1OC[C@H]2[C@@H]1Cc1cccc(F)c1[C@@H]2/C=C/c1ccc(-c2cccc(F)c2)cn1` (racemic), in [5], the IC50 was 85.5 nM.

Turning to `O=C1OC[C@H]2[C@@H]1Cc1c(F)cc(F)cc1[C@@H]2/C=C/c1ccc(-c2cccc(Cl)c2)cn1` (racemic), the IC50 in [5] amounted to 46.5 nM.

For the compound `O=C1OC[C@H]2[C@@H]1Cc1c(Cl)cccc1[C@@H]2/C=C/c1ccc(-c2cccc(F)c2)cn1` (racemic), the IC50 in data set [5] came to 63.5 nM.

Consider `O=C1OC[C@H]2[C@@H]1Cc1c(Cl)cccc1[C@@H]2/C=C/c1ccc(-c2cccc(C(F)(F)F)c2)cn1` (racemic), for which, in [5], the IC50 was 225 nM.

Turning to `O=C1OC[C@H]2[C@@H]1Cc1cccc(F)c1[C@@H]2/C=C/c1ccc(-c2cccc(Cl)c2)cn1` (racemic), in data set [5], the IC50 amounted to 330 nM.

`O=C1OC[C@H]2[C@@H]1Cc1ccc(Cl)cc1[C@@H]2/C=C/c1ccc(-c2cccc(Cl)c2)cn1` (racemic) yielded an IC50 in data set [5] of 120 nM.

Regarding `O=C1OC[C@H]2[C@@H]1Cc1ccccc1[C@@H]2/C=C/c1ccc(-c2cccc(Cl)c2)cn1`, the result in the data set with Cynomolgus monkey [9] was Active. Further, the AUC in [6] was determined as 6300 ng·h/mL. Besides, the half-inhibitory concentration (IC50) in [5] was 14.5 nM.

`O=C1OC[C@H]2[C@@H]1Cc1ccc(F)cc1[C@@H]2/C=C/c1ccc(-c2cccc(Cl)c2)cn1`: the AUC(0-t) at 6 h in data set [4] is 6720 ng·h/mL. The compound further gave a half-maximal inhibitory concentration (IC50) in [5] of 10 nM.

Take `O=C1OC[C@H]2[C@H](/C=C/c3ccccn3)c3ccccc3C[C@@H]12`: the IC50 in data set [5] amounted to 12000 nM.

In turn, `COc1ccc2nc(/C=C/[C@@H]3c4ccccc4C[C@H]4C(=O)O[C@@H](C)[C@@H]34)ccc2c1` returned an IC50 in data set [5] of 3140 nM.

In turn, `O=C1OC[C@H]2[C@@H]1Cc1c(Cl)cccc1[C@@H]2/C=C/c1ccc(-c2cccc(Cl)c2)cn1` (racemic) registered an IC50 in [5] of 328 nM.

In turn, `O=C1OC[C@H]2[C@@H]1Cc1c(ccc(F)c1F)[C@@H]2/C=C/c1ccc(-c2cccc(F)c2)cn1` yielded an IC50 in data set [5] of 7 nM.

As for `O=C1OC[C@H]2[C@@H]1Cc1c(F)cc(F)cc1[C@@H]2/C=C/c1ccc(-c2cccc(C(F)(F)F)c2)cn1`, in [5], the IC50 turned out to be 21.5 nM.

Regarding `O=C1OC[C@H]2[C@@H]1Cc1ccccc1[C@@H]2/C=C/c1ccc(-c2cccc(C(F)(F)F)c2)cn1`, in data set [6], the AUC is under 300 ng·h/mL. The same compound showed an IC50 in data set [5] of 10 nM.

As to `COc1ccc2nc(/C=C/[C@H]3c4ccccc4C[C@@H]4C(=O)O[C@@H](C)[C@@H]43)ccc2c1`, the IC50 in data set [5] amounted to 9170 nM.

As to `COc1ccc2nc(/C=C/[C@@H]3c4ccccc4C[C@H]4C(=O)O[C@H](C)[C@@H]34)ccc2c1`, the IC50 in data set [5] stood at 580 nM.

Consider `O=C1OC[C@H]2[C@@H]1Cc1ccc(Cl)cc1[C@@H]2/C=C/c1ccc(-c2cccc(F)c2)cn1`, for which the IC50 in data set [5] amounted to 14.5 nM.

`COc1ccc2nc(/C=C/[C@@H]3c4ccccc4C[C@H]4C(=O)OC[C@@H]34)ccc2c1` (racemic) registered an IC50 in data set [5] of 12.5 nM.

`COc1ccc2nc(/C=C/[C@H]3c4ccccc4C[C@@H]4C(=O)O[C@H](C)[C@@H]43)ccc2c1` had an IC50 in data set [5] of 90 nM.

For `O=C1OC[C@H]2[C@@H]1Cc1c(F)cccc1[C@@H]2/C=C/c1ccc(-c2cccc(F)c2)cn1`, the AUC(0-t) at 6 h in [4] was found to be 4590 ng·h/mL. In addition, the half-maximal inhibitory concentration (IC50) in data set [5] amounted to 20.5 nM.

In data set [5], `O=C1OC[C@H]2[C@@H]1Cc1ccc(F)cc1[C@@H]2/C=C/c1ccc(-c2cccc(C(F)(F)F)c2)cn1` displayed an IC50 of 31.5 nM.

As for `COc1ccc2nc(/C=C/[C@@H]3c4ccccc4C[C@H]4C(=O)OC(C)(C)[C@@H]34)ccc2c1` (racemic), the IC50 in data set [5] was found to be 225 nM.

Consider `O=C1OC[C@H]2[C@@H]1Cc1c(F)cccc1[C@@H]2/C=C/c1ccc(-c2cccc(Cl)c2)cn1`, for which, in data set [5], the IC50 stood at 29 nM.

Source of the values: ChEMBL document CHEMBL1148878, “Himbacine derived thrombin receptor antagonists: discovery of a new tricyclic core” (Bioorg Med Chem Lett, 2007).
